The values that follow come from US7718653B2, “Pyrimidine derivatives for inhibiting Eph receptors” (AstraZeneca AB, priority 2007, dated 2010).

The target of one test is T1, recombinant EphB4 (Homo sapiens, UniProt P54760).
T1 construct: amino acids 563-987; Swiss-Prot Acc; No. P54760; purchased ProQinase GmbH 0178-0000-3
T1 sequence (P54760 563-987): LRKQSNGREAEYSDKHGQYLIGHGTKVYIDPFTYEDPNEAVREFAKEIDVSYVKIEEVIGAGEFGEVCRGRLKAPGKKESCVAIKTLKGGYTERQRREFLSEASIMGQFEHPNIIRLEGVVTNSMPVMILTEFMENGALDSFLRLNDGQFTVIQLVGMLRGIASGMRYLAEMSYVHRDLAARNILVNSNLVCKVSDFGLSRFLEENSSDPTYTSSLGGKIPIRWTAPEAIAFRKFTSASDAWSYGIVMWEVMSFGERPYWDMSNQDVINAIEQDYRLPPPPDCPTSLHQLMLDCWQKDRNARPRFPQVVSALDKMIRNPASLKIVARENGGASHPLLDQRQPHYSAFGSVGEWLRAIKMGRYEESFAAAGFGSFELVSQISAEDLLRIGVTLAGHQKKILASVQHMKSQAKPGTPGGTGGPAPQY
The experiment in a line: In vitro EphB4 enzyme assay (Alphascreen, phosphorylation of biotin-poly-GAT). Format: biochemical. The note with it: * = tested once only, read-out: EphB4 enzyme assay Mean IC50 value. As for the experimental part: A) In vitro EphB4 Enzyme Assay
(§1) This assay detects inhibitors of EphB4-mediated phosphorylation of a polypeptide substrate using Alphascreen™ luminescence detection technology. Briefly, recombinant EphB4 was incubated with a biotinylated-polypeptide substrate (biotin-poly-GAT) in presence of magnesium-ATP. The reaction was stopped by addition of EDTA, together with streptavidin-coated donor beads which bind the biotin-substrate containing any phosphorylated tyrosine residues. Anti-phosphotyrosine antibodies present on acceptor beads bind to phosphorylated substrate, thus bringing the donor & acceptor beads into close proximity. Subsequent excitation of the donor beads at 680 nm generated singlet oxygen species that interact with a chemiluminescer on the acceptor beads, leading to light emission at 520-620 nm. The signal intensity is directly proportional to the level of substrate phosphorylation and thus inhibition is measured by a decrease in signal.
Aqueous Compound Preparation:
Acoustic Compound Preparation:
To ensure that each well contained a total of 120 nl DMSO the wells were all backfilled as required. […] The test range of compounds was 100× the required final concentration.
Assay plates were then incubated at room temperature for 1 hour.
For assays using compounds prepared via acoustic dispensing, the assay mix was adjusted such that the final assay volume of 12 ul contained the same concentration of reagent as 10 ul of assay mix used when aqueous compounds were tested.
The plates were sealed under natural lighting conditions, wrapped in aluminium foil and incubated in the dark for a further 20 hours.
The resulting assay signal was determined on the Perkin Elmer EnVision plate reader. The minimum value was subtracted from all values, and the signal plotted against compound concentration to generate IC50 data. The method used to generate the compound dilutions was recorded with the IC50 value in the database.

In another test the target is T2, recombinant EphA2 (Homo sapiens, UniProt P29317).
T2 construct: amino acids 591-976; Swiss-Prot Acc; No. P29317; purchased ProQinase GmbH 0368-0000-1
T2 sequence (P29317 591-976): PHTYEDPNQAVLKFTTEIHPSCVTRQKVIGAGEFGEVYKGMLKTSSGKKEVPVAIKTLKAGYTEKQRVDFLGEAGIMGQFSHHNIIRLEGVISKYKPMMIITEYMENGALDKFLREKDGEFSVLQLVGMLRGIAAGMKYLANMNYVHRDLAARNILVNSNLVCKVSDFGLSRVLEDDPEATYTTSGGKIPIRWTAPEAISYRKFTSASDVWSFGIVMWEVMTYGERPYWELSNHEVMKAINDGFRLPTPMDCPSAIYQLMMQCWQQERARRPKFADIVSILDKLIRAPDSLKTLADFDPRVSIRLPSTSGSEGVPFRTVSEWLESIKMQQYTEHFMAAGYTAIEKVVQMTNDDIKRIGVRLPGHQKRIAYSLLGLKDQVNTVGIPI
As to the kind of experiment: In vitro EphA2 enzyme assay (Alphascreen, phosphorylation of biotin-poly-GAT). The test is classed as biochemical. As to the method:
C) In vitro EphA2 Enzyme Assay
as §1, with “EphA2-mediated” for “EphB4-mediated”, “EphA2” for “EphB4”
Test compounds were prepared as 10 mM stock solutions in DMSO (Sigma-Aldrich Company Ltd, Gillingham, Dorset SP8 4XT Catalogue No. 154938) and serially diluted with 5% DMSO to give a range of test concentrations at 6× the required final concentration. […]
The resulting assay signal was determined on the Perkin Elmer EnVision plate reader. […]
On the technique in general: In Alpha technology, singlet oxygen from a donor bead excites a nearby acceptor bead.

The mark [1] stands for this setting: Method of compound preparation: Genesis (aqueous compound preparation).
[2] abbreviates: Method of compound preparation: Echo (acoustic dispensing).

The structures appear in SMILES notation. pIC50: −log10 of the molar value. Read-outs that look alike come from different tables or passages of the source.

As to `Clc1ccc2c(c1Nc1ccnc(Nc3cc(N4CCOCC4)nc(N4CCOCC4)c3)n1)OCO2` [Example 1, N4-(5-chlorobenzo[d][1,3]dioxol-4-yl)-N2-(2,6-dimorpholinopyridin-4-yl)pyrimidine-2,4-diamine], the pIC50 (in general, −log10 of the IC50, conventionally taken in molar units) on recombinant EphB4 (setting [1]) is 6.30.
On to `CN(c1ccnc(Nc2ccnc(N3CCOCC3)c2)n1)c1cccc2[nH]ncc12` [Example 4, N′-(1H-indazol-4-yl)-N′-methyl-N-(2-morpholin-4-ylpyridin-4-yl)pyrimidine-2,4-diamine], for which the pIC50 on recombinant EphB4 (setting [2]) is 8.52; on recombinant EphB4 (setting [1]), 6.84.
Take `Cc1nc(Nc2nccc(Nc3c(Cl)ccc4c3OCO4)n2)cc(N2CCN(C)CC2)n1` [Example 12, N′-(5-chloro-1,3-benzodioxol-4-yl)-N-[2-methyl-6-(4-methylpiperazin-1-yl)pyrimidin-4-yl]pyrimidine-2,4-diamine]: the pIC50 on recombinant EphB4 (setting [1]) was 5.19.
With `Clc1ccc2c(c1Nc1ccnc(Nc3cccc(N4CCOCC4)n3)n1)OCO2` [Example 10, N′-(5-chloro-1,3-benzodioxol-4-yl)-N-(6-morpholino-2-pyridyl)pyrimidine-2,4-diamine], the pIC50 is 7.19 on recombinant EphB4 (setting [2]), 6.09 on recombinant EphB4 (setting [1]) and 6.25 at recombinant EphA2.
For the molecule `CN(c1ccnc(Nc2cc(Cl)nc(N3CCOCC3)c2)n1)c1cccc2[nH]ncc12` [Example 8, N-(2-chloro-6-morpholin-4-yl-pyridin-4-yl)-N′-(1H-indazol-4-yl)-N′-methyl-pyrimidine-2,4-diamine], the pIC50 on recombinant EphB4 (setting [2]) was 8.40; on recombinant EphB4 (setting [1]) it was 6.35.
`Clc1ccc2c(c1Nc1ccnc(Nc3cc(N4CCOCC4)ccn3)n1)OCO2` [Example 9, N′-(5-chloro-1,3-benzodioxol-4-yl)-N-(4-morpholino-2-2pyridyl)pyrimidine-2,4-diamine]: the pIC50 on recombinant EphB4 (setting [2]) is 7.28; on recombinant EphB4 (setting [1]), 6.77; on recombinant EphA2, 6.88.
For `CN(c1ccnc(Nc2cc(Cl)cc(N3CCOCC3)n2)n1)c1cccc2[nH]ncc12` [Example 6, N-(4-chloro-6-morpholin-4-yl-pyridin-2-yl)-N′-(1H-indazol-4-yl)-N′-methyl-pyrimidine-2,4-diamine], the pIC50 on recombinant EphB4 (setting [2]) was 8.15; on recombinant EphB4 (setting [1]), 6.01.
`CN(c1ccnc(Nc2cc(N3CCOCC3)nc(N3CCOCC3)c2)n1)c1c(Cl)ccc2c1OCO2` [Example 2, N4-(5-chlorobenzo[d][1,3]dioxol-4-yl)-N2-(2,6-dimorpholinopyridin-4-yl)-N4-methylpyrimidine-2,4-diamine]: at recombinant EphB4 (setting [1]), the pIC50 was 6.22.
